These compounds were tested against human PDHK2 (hPDHK2) (Homo sapiens (Human), UniProt Q15119) (assay: Inhibitory action of PDHK2 activity (PDH/hPDHK2 complex, residual PDH activity by NADH absorbance at 340 nm)). Conditions: FLAG-tagged recombinant hPDHK2 with porcine heart PDH complex; PDHK reaction 45 min at room temperature.
Type: biochemical
Method in brief: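 N-FLAG hPDHK2 from E. coli (0.5 μg/mL) preincubated overnight at 4 °C with porcine heart PDH complex (0.025 U/mL), pH 7.0 MOPS buffer. Pyruvate, CoA, NAD and TPP substrates added, 90 min at room temperature. Residual PDH activity from NADH A340 change, corrected for compound effect on PDH alone; IC50 from inhibition %.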

First: C[C@H]1Cn2nc(C34CCC(C#N)(CC3)CC4)cc2-c2cnc([C@@](C)(O)C(F)(F)F)n21 [Example 71, 4-((S)-5-methyl-3-((R)-1,1,1-trifluoro-2-hydroxypropan-2-yl)-5,6-dihydroimidazo[1,5-a]pyrazolo[5,1-c]pyrazin-9-yl)bicyclo[2.2.2]octane-1-carbonitrile]
Second: C[C@H]1Cn2nc(C34CCC(C#N)(CC3)OC4)cc2-c2cnc([C@@](C)(O)C(F)(F)F)n21 [Example 88, 4-((S)-5-methyl-3-((R)-1,1,1-trifluoro-2-hydroxypropan-2-yl)-5,6-dihydroimidazo[1,5-a]pyrazolo[5,1-c]pyrazin-9-yl)-2-oxabicyclo[2.2.2]octane-1-carbonitrile]
The IC50 of the first is 3.6-fold lower: 6.6 nM for the first, 23.8 nM for the second. The first is the more potent here.

`C[C@H]1Cc2nn(C)cc2-c2onc([C@@](C)(O)C(F)(F)F)c21` (racemic) [Example 23] and `C[C@H]1Cc2c(cnn2-c2ccccc2)-c2cnc(C(C)(O)C(F)(F)F)n21` (stereo in doubt) [Example 73, (S)-1,1,1-trifluoro-2-((S)-5-methyl-3-phenyl-4,5-dihydro-3H-imidazo[1,5-a]pyrazolo[4,3-c]pyridin-7-yl)propan-2-ol] are within 1.5-fold of each other in IC50: 18.8 nM for the first, 15.7 nM for the second.

— patent US20240417406A1, “NITROGEN-CONTAINING TRICYCLIC COMPOUND AND PHARMACEUTICAL USE THEREOF” (JAPAN TOBACCO INC., priority 2021, published 2024)
